Here are results for 7 compounds from US20210047278A1, “E3 UBIQUITIN LIGASE AGONISTS, PHARMACEUTICAL COMPOSITIONS INCLUDING THE E3 UBIQUITIN LIGASE AGONISTS, RELATED METHODS OF USE” (FRED HUTCHINSON CANCER RESEARCH CENTER, priority 2018, published 2021).

Common to all, as to assay type: binding
The target in one test is T1, FBW7^ARG+pCycE (Homo sapiens, UniProt Q969H0, R505L).
T1 construct: GST (TEV site and flexible linker) (N, cleaved yes); made in house; host or cells: SF9 insect cells (baculovirus)
T1 sequence (Q969H0 64-707 R505L): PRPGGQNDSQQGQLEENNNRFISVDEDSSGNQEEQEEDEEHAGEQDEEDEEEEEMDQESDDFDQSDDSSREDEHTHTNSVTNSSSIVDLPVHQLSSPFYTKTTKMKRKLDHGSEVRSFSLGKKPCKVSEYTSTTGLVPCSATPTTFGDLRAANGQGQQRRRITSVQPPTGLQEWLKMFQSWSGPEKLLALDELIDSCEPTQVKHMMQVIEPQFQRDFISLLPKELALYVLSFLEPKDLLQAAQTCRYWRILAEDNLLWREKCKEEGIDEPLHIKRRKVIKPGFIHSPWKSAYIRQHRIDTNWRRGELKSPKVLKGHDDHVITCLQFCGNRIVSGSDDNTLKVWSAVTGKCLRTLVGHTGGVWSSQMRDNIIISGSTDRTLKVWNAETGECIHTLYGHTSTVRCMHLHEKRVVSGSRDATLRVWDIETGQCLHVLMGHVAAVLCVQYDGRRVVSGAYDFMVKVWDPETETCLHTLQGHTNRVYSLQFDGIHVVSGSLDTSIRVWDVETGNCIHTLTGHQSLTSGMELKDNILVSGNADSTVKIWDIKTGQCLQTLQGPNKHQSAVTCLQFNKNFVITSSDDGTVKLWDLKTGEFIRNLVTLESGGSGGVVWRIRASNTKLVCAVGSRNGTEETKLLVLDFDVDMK
T1 sequence (P63208 2-163 partner): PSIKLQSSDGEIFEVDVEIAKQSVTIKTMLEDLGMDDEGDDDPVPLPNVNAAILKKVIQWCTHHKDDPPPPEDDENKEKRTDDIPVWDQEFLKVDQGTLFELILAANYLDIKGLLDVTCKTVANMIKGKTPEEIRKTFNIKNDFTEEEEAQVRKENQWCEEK
The experiment in a line: FBW7^ARG-cyclin E agonist ALPHAscreen (primary PRUN, confirmation CRUN1, dose-response DRUN). The settings on record: for EC50 / Emax: DRUN dose-response; for Emax: relative to WT-FBW7+pCycE, read-out: FBW7 ACT Averaged Max % Response. A digest of the protocol: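 ALPHAscreen agonist assay: His-tagged FBW7 R505L on Ni-chelate acceptor beads (25 nM FBW7, 25 nM biotinylated phospho-cyclin E peptide, 10 µg/ml beads), streptavidin donor beads, ALPHA signal read. Primary and confirmation runs at 26.1 μM; dose-response as 10-point 3-fold series to ~87 μM, in triplicate; activation relative to WT-FBW7+pCycE.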

Another test addresses T2, FBW7^ARG (RLFBW7) alone (Homo sapiens, UniProt Q969H0, R505L).
T2 construct: GST (TEV site and flexible linker) (N, cleaved yes); made in house; host or cells: SF9 insect cells (baculovirus)
The experiment in a line: Counterscreen 1 ALPHAscreen with FBW7^ARG alone (CSRUN1/DCSRUN1). The settings on record: dose-response counterscreen; for Emax: read-out: RLFBW7 ACT DCSRUN1 Averaged Max % Response. A digest of the protocol: (§1)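 ALPHAscreen counterscreens, read on ENVISION, omitting either FBW7^ARG or the phosphorylated cyclin E peptide to flag general ALPHAscreen agonists. Compounds tested in triplicate as 10-point 3-fold dilutions up to approximately 87 μM. Activation expressed relative to WT-FBW7+pCycE, with 10% set as positive.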

In another test the test system is pCycE alone. The experiment in a line: Counterscreen 2 ALPHAscreen with cyclin E phosphopeptide alone (CSRUN2/DCSRUN2). The note with it: for CyCEP ACT DCSRUN2 Averaged Max % Response: activation relative to WT-FBW7+pCycE, averaged maximum; for EC50: dose-response, triplicate, 10 point 3-fold dilutional series, read-out: CyCEP ACT DCSRUN2 Final EC50. The method in brief: as §1

Where [1] appears, read: raw curve fit, read-out: FBW7 ACT EC50 Curve Fit Raw, Molar.
[2] abbreviates: triplicate, 10 point 3-fold dilution, max approx. 87 μM, read-out: FBW7 ACT Final EC50, Molar.
The mark [3] stands for this setting: confirmation assay, triplicate, single concentration 26.1 μM, read-out: FBW7 ACT CRUN1 Avg % Response and Stdev.
The mark [4] stands for this setting: primary screen, 1536-well, 26.1 μM, FBW7^ARG + pCycE degron peptide, high control wt-FBW7+pCycE, read-out: FBW7 ACT PRUN % Response.
Where [5] appears, read: raw curve fit, read-out: RLFBW7 ACT DCSRUN1 EC50 Curve Fit Raw.
[6] abbreviates: read-out: RLFBW7 ACT DCSRUN1 Final EC50.

The structures appear in SMILES notation. Read-outs that look alike come from different tables or passages of the source.

T2 sequence (Q969H0 64-707 R505L): as the sequence (Q969H0 64-707 R505L) above
T2 sequence (P63208 2-163 partner): as the sequence (P63208 2-163 partner) above

With `O=c1c2cnn(-c3ccccc3)c2nnn1Cc1cccnc1` [SR-01000355082-1], the EC50 on FBW7^ARG+pCycE (setting [1]) is 0.009 µM; on FBW7^ARG+pCycE (setting [2]), above 65.3 µM; at FBW7^ARG (RLFBW7) alone (setting [5]), 11.9 µM; on FBW7^ARG (RLFBW7) alone (setting [6]) it was above 65.3 µM; with pCycE alone, above 65.3 µM. Further, the values for the Emax on FBW7^ARG+pCycE and at FBW7^ARG (RLFBW7) alone were 6.4% and 2.7%, respectively. Also, the activation at 26.1 µM on FBW7^ARG+pCycE (setting [3]) was 2.54 ± 0.42%; at FBW7^ARG+pCycE (setting [4]), 1.95%. Besides, in the test with pCycE alone, the “CyCEP ACT DCSRUN2 Averaged Max % Response” value was 0.12%.

Take `CCOC(=O)C1=CN(Cc2ccc(OC)cc2)C=C(C(=O)OCC)C1c1ccccc1OCc1ccccc1` [SR-01000587933-1]: the Emax at FBW7^ARG+pCycE came to 12%; at FBW7^ARG (RLFBW7) alone, 3.64%. Also, the figures for the activation at 26.1 µM on FBW7^ARG+pCycE (setting [3]) and on FBW7^ARG+pCycE (setting [4]) were 2.81 ± 0.04% and 2.16%, respectively. Further, in the test on pCycE alone, the “CyCEP ACT DCSRUN2 Averaged Max % Response” value turned out to be 2.45%. For the same compound, the EC50 with pCycE alone is above 44.2 µM.

As to `CCN(Cc1ccccc1)C(=O)c1cc2c(=O)n3cccc(C)c3nc2n1C` [SR-01000140943-1], the EC50 is 21.5 µM at FBW7^ARG+pCycE (setting [1]); above 65.3 µM at FBW7^ARG+pCycE (setting [2]); 4.1 µM at FBW7^ARG (RLFBW7) alone (setting [5]); above 65.3 µM at FBW7^ARG (RLFBW7) alone (setting [6]); above 65.3 µM with pCycE alone. The Emax at FBW7^ARG+pCycE came to 8.52%; at FBW7^ARG (RLFBW7) alone, 1.56%. Also, the activation at 26.1 µM at FBW7^ARG+pCycE (setting [3]) was 2.95 ± 0.31%; on FBW7^ARG+pCycE (setting [4]) it was 3.93%. In addition, in the test on pCycE alone, the “CyCEP ACT DCSRUN2 Averaged Max % Response” value turned out to be 0.79%.

Regarding `Cc1ccc(-c2cccc3cnc(Nc4ccc(-n5cnc(-c6ccccn6)n5)cc4)nc23)cn1.O=C(O)C(F)(F)F` [SR-00000008492-1], the EC50 was 4 µM on FBW7^ARG+pCycE (setting [1]); above 65.3 µM on FBW7^ARG+pCycE (setting [2]); 6.6 µM at FBW7^ARG (RLFBW7) alone (setting [5]); above 65.3 µM at FBW7^ARG (RLFBW7) alone (setting [6]); above 65.3 µM with pCycE alone. For the same compound, the figures for the Emax on FBW7^ARG+pCycE and on FBW7^ARG (RLFBW7) alone were 8.53% and 29.7%, respectively. The activation at 26.1 µM at FBW7^ARG+pCycE (setting [3]) turned out to be 4.91 ± 0.39%; on FBW7^ARG+pCycE (setting [4]), 5.73%. Moreover, in the test with pCycE alone, the “CyCEP ACT DCSRUN2 Averaged Max % Response” value came out at 0.22%.

For `CN(C)CCN(C)c1nc([C@H](N)Cc2cccc(F)c2)cc2ccc(-c3cn[nH]c3)cc12.O=C(O)C(F)(F)F` [SR-00000006284-1], the EC50 at FBW7^ARG+pCycE (setting [1]) is 7.2 µM; on FBW7^ARG+pCycE (setting [2]), above 16.3 µM; on FBW7^ARG (RLFBW7) alone (setting [5]), 2.2 µM; at FBW7^ARG (RLFBW7) alone (setting [6]), above 16.3 µM; with pCycE alone, above 16.3 µM. Also, the figures for the Emax at FBW7^ARG+pCycE and on FBW7^ARG (RLFBW7) alone were 15.4% and 0.27%, respectively. The activation at 26.1 µM was 7.7 ± 0.45% on FBW7^ARG+pCycE (setting [3]) and 2.73% on FBW7^ARG+pCycE (setting [4]). Moreover, in the test with pCycE alone, the “CyCEP ACT DCSRUN2 Averaged Max % Response” value is on record as 0.41%.

Consider `CC1=C(C(=O)OCCc2ccccc2)C(c2ccc(Cl)cc2Cl)C2=C(CC(C)(C)CC2=O)N1` (centres unmarked) [SR-01000419178-1], for which the EC50 is 16.4 µM at FBW7^ARG+pCycE (setting [1]); above 45.8 µM on FBW7^ARG+pCycE (setting [2]); 0.0785 µM at FBW7^ARG (RLFBW7) alone (setting [5]); above 45.8 µM at FBW7^ARG (RLFBW7) alone (setting [6]); above 45.8 µM with pCycE alone. The Emax at FBW7^ARG+pCycE was 9.01%; at FBW7^ARG (RLFBW7) alone, 3.8%. In addition, the activation at 26.1 µM at FBW7^ARG+pCycE (setting [3]) was found to be 4.54 ± 0.53%; on FBW7^ARG+pCycE (setting [4]), 2.09%. The “CyCEP ACT DCSRUN2 Averaged Max % Response” value in the test with pCycE alone worked out at 0.09%.

On to `CCOC(=O)c1sc2ncn(CC(=O)NCCC3=CCCCC3)c(=O)c2c1C` [SR-01000119175-1], for which the Emax was found to be 10.3% on FBW7^ARG+pCycE and 0.7% on FBW7^ARG (RLFBW7) alone. Moreover, the activation at 26.1 µM at FBW7^ARG+pCycE (setting [3]) stood at 2.53 ± 0.13%; on FBW7^ARG+pCycE (setting [4]) it was 2.18%. The “CyCEP ACT DCSRUN2 Averaged Max % Response” value with pCycE alone amounted to 0.13%. In the test on pCycE alone, the EC50 is above 65.3 µM.
